Assay results: PubChem BioAssay (NCI)
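Briefly, cells in 96-well plates were exposed to five compound concentrations for 48 h, and endpoints were estimated by linear interpolation. GI50 = concentration required for 50% inhibition of growth. At the TGI there is no net growth.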

What was measured:
Assay in all cases: growth of human tumour cells (NCI), 48 h
OVCAR-5 ovarian = system: OVCAR-5 ovarian
MOLT-4 leukemia = system: MOLT-4 leukemia
KM12 colon = system: KM12 colon
NCI/ADR-RES ovarian = system: NCI/ADR-RES ovarian
U251 CNS = system: U251 CNS
UO-31 renal = system: UO-31 renal
CCRF-CEM leukemia = system: CCRF-CEM leukemia
T-47D breast = system: T-47D breast

O=C(/C=C/C12c3ccccc3C(c3ccccc31)C1C(=O)N(c3ccccc3)C(=O)C12)c1ccc(Cl)cc1 (configuration not stated)
GI50 (OVCAR-5 ovarian): 1.6 µM | TGI (OVCAR-5 ovarian): 4.66 µM | GI50 (MOLT-4 leukemia): 0.759 µM | TGI (MOLT-4 leukemia): > 100 µM | GI50 (KM12 colon): 2.18 µM | TGI (KM12 colon): > 100 µM | GI50 (NCI/ADR-RES ovarian): 2.16 µM | TGI (NCI/ADR-RES ovarian): 8.47 µM | GI50 (U251 CNS): 1.84 µM | TGI (U251 CNS): 4.82 µM | GI50 (UO-31 renal): 1.12 µM | TGI (UO-31 renal): 2.47 µM | GI50 (CCRF-CEM leukemia): 0.566 µM | TGI (CCRF-CEM leukemia): > 100 µM

N=Nc1c(OC(=O)Nc2ccccc2)[nH]c2ccccc12
TGI (OVCAR-5 ovarian): > 100 µM | TGI (KM12 colon): 29.3 µM | TGI (NCI/ADR-RES ovarian): > 100 µM | TGI (T-47D breast): 37.7 µM | TGI (U251 CNS): 30.8 µM | TGI (UO-31 renal): 25.6 µM

O=C(CCN1CCOCC1)Nc1ccc(F)cc1F
TGI (OVCAR-5 ovarian): > 100 µM | TGI (MOLT-4 leukemia): > 100 µM | TGI (KM12 colon): > 100 µM | TGI (NCI/ADR-RES ovarian): > 100 µM | TGI (T-47D breast): > 100 µM | TGI (U251 CNS): > 100 µM | TGI (UO-31 renal): > 100 µM

CN(CCC#N)c1ccc(/C=C(\C#N)c2cccc(C(F)(F)F)c2)cc1
GI50 (OVCAR-5 ovarian): 6.73 µM | TGI (OVCAR-5 ovarian): > 100 µM | GI50 (MOLT-4 leukemia): 3.06 µM | TGI (MOLT-4 leukemia): > 100 µM | GI50 (KM12 colon): 2.97 µM | TGI (KM12 colon): > 100 µM | GI50 (NCI/ADR-RES ovarian): 3.68 µM | TGI (NCI/ADR-RES ovarian): > 100 µM | GI50 (T-47D breast): 2.25 µM | TGI (T-47D breast): > 100 µM | GI50 (U251 CNS): 3.75 µM | TGI (U251 CNS): > 100 µM | GI50 (UO-31 renal): 2.27 µM | TGI (UO-31 renal): > 100 µM

O=C(/C=C1\C(=O)N(Cc2ccc([N+](=O)[O-])cc2)c2ccccc21)c1ccc(OCCN2CCCCC2)cc1
GI50 (OVCAR-5 ovarian): 1.33 µM | TGI (OVCAR-5 ovarian): 3.09 µM | GI50 (MOLT-4 leukemia): 0.456 µM | TGI (MOLT-4 leukemia): 2.73 µM | GI50 (KM12 colon): 1.81 µM | TGI (KM12 colon): 3.54 µM | GI50 (NCI/ADR-RES ovarian): 2.04 µM | TGI (NCI/ADR-RES ovarian): 5.76 µM | GI50 (U251 CNS): 1.72 µM | TGI (U251 CNS): 3.09 µM | GI50 (UO-31 renal): 1.4 µM | TGI (UO-31 renal): 2.7 µM | GI50 (CCRF-CEM leukemia): 0.323 µM | TGI (CCRF-CEM leukemia): 2.35 µM

COc1cc2c(c(OC)c1OC)C(=O)CC(c1cccc(NC(=O)c3ccc(Br)cc3)c1)O2 (configuration not stated)
GI50 (OVCAR-5 ovarian): > 100 µM | TGI (OVCAR-5 ovarian): > 100 µM | GI50 (MOLT-4 leukemia): 1.54 µM | TGI (MOLT-4 leukemia): 4.19 µM | GI50 (NCI/ADR-RES ovarian): 2.41 µM | TGI (NCI/ADR-RES ovarian): 9.45 µM | GI50 (T-47D breast): 1.41 µM | TGI (T-47D breast): 5.98 µM | GI50 (U251 CNS): 3.07 µM | TGI (U251 CNS): > 100 µM | GI50 (UO-31 renal): 1.49 µM | TGI (UO-31 renal): > 100 µM

Cc1cc(N2CCN(C)CC2)nc(NCc2cc(Nc3ccnc4cc(Cl)ccc34)ccc2F)n1
GI50 (MOLT-4 leukemia): 1.9 µM | TGI (MOLT-4 leukemia): > 100 µM | GI50 (KM12 colon): 3.2 µM | TGI (KM12 colon): > 100 µM | GI50 (T-47D breast): 1.09 µM | TGI (T-47D breast): 3.62 µM | GI50 (U251 CNS): 1.87 µM | TGI (U251 CNS): 3.73 µM | GI50 (UO-31 renal): 1.76 µM | TGI (UO-31 renal): 3.72 µM

COc1cc2ccccc2c2cc([N+](=O)[O-])oc12
TGI (OVCAR-5 ovarian): 9.93 µM | TGI (MOLT-4 leukemia): 3.95 µM | TGI (KM12 colon): 4.68 µM | TGI (NCI/ADR-RES ovarian): 32.1 µM | TGI (T-47D breast): > 45.6 µM | TGI (U251 CNS): 7.14 µM | TGI (UO-31 renal): 3.1 µM

CCCCN(CCCC)c1ccc(C(=N)c2ccc(N(C)C)cc2)cc1
GI50 (OVCAR-5 ovarian): 1.31 µM | TGI (OVCAR-5 ovarian): 2.86 µM | GI50 (KM12 colon): 0.516 µM | TGI (KM12 colon): 1.75 µM | GI50 (NCI/ADR-RES ovarian): 0.335 µM | TGI (NCI/ADR-RES ovarian): 1.27 µM | GI50 (T-47D breast): 0.322 µM | TGI (T-47D breast): 1.51 µM | GI50 (U251 CNS): 0.46 µM | TGI (U251 CNS): 1.42 µM | GI50 (UO-31 renal): 0.0919 µM | TGI (UO-31 renal): 1.28 µM | GI50 (CCRF-CEM leukemia): 0.544 µM | TGI (CCRF-CEM leukemia): 3.24 µM

O=[N+]([O-])c1cc([N+](=O)[O-])c(Cl)c(Cl)c1Cl
GI50 (MOLT-4 leukemia): 0.831 µM | TGI (MOLT-4 leukemia): 5.82 µM | GI50 (KM12 colon): 1.85 µM | TGI (KM12 colon): 3.76 µM | GI50 (NCI/ADR-RES ovarian): 2.87 µM | TGI (NCI/ADR-RES ovarian): > 100 µM | GI50 (T-47D breast): 0.631 µM | TGI (T-47D breast): 2.84 µM | GI50 (U251 CNS): 1.59 µM | TGI (U251 CNS): 3.02 µM | GI50 (UO-31 renal): 1.51 µM | TGI (UO-31 renal): 3.08 µM | GI50 (CCRF-CEM leukemia): 0.459 µM | TGI (CCRF-CEM leukemia): 5.78 µM

CN1CCN(CCCOc2cccc3nc(Nc4ccc(Cl)c(F)c4)ccc23)CC1
GI50 (OVCAR-5 ovarian): 1.55 µM | TGI (OVCAR-5 ovarian): 3.26 µM | GI50 (MOLT-4 leukemia): 1.82 µM | TGI (MOLT-4 leukemia): 3.77 µM | GI50 (KM12 colon): 1.77 µM | TGI (KM12 colon): 3.43 µM | GI50 (NCI/ADR-RES ovarian): 1.8 µM | TGI (NCI/ADR-RES ovarian): 3.77 µM | GI50 (T-47D breast): 1.78 µM | TGI (T-47D breast): 4.02 µM | GI50 (U251 CNS): 1.81 µM | TGI (U251 CNS): 3.28 µM | GI50 (UO-31 renal): 1.57 µM | TGI (UO-31 renal): 3.32 µM

Cc1cc2cccnc2c2ncccc12
GI50 (OVCAR-5 ovarian): 1.35 µM | TGI (OVCAR-5 ovarian): 42.1 µM | GI50 (KM12 colon): 0.78 µM | TGI (KM12 colon): 18.4 µM | GI50 (NCI/ADR-RES ovarian): 0.315 µM | TGI (NCI/ADR-RES ovarian): 1.84 µM | GI50 (T-47D breast): 3.32 µM | TGI (T-47D breast): 21.3 µM | GI50 (U251 CNS): 0.703 µM | TGI (U251 CNS): 12.1 µM | GI50 (UO-31 renal): 0.411 µM | TGI (UO-31 renal): 4.15 µM

COc1ccc2c(c1)[C@]1(C[C@H]1c1ccc3c(/C=C/c4ccc(CN5C[C@@H](C)O[C@@H](C)C5)cc4)n[nH]c3c1)C(=O)N2
GI50 (OVCAR-5 ovarian): 8.26 µM | TGI (OVCAR-5 ovarian): > 100 µM | GI50 (MOLT-4 leukemia): 2.23 µM | TGI (MOLT-4 leukemia): > 100 µM | GI50 (KM12 colon): 0.0143 µM | TGI (KM12 colon): > 73.6 µM | GI50 (NCI/ADR-RES ovarian): 2.71 µM | TGI (NCI/ADR-RES ovarian): 24.9 µM | GI50 (T-47D breast): 2.68 µM | TGI (T-47D breast): > 86.9 µM | GI50 (U251 CNS): 5.14 µM | TGI (U251 CNS): 45.6 µM | GI50 (UO-31 renal): 2.84 µM | TGI (UO-31 renal): > 100 µM

O=C1c2ccccc2NC(c2cc(Cl)cc(Cl)c2O)N1CCc1ccccn1 (configuration not stated)
TGI (OVCAR-5 ovarian): > 100 µM | TGI (KM12 colon): > 100 µM | TGI (NCI/ADR-RES ovarian): > 100 µM | TGI (T-47D breast): 69.8 µM | TGI (U251 CNS): > 100 µM | TGI (UO-31 renal): > 100 µM

Oc1c(C(Nc2cccc3ccccc23)c2ccccc2)ccc2cccnc12 (configuration not stated)
GI50 (OVCAR-5 ovarian): 7.32 µM | TGI (OVCAR-5 ovarian): > 100 µM | GI50 (MOLT-4 leukemia): 2.41 µM | TGI (MOLT-4 leukemia): > 100 µM | GI50 (KM12 colon): 5.03 µM | TGI (KM12 colon): > 100 µM | GI50 (NCI/ADR-RES ovarian): 2.17 µM | TGI (NCI/ADR-RES ovarian): 8.29 µM | GI50 (T-47D breast): 4.75 µM | TGI (T-47D breast): 58.3 µM | GI50 (U251 CNS): 2.42 µM | TGI (U251 CNS): 16 µM | GI50 (UO-31 renal): 1.62 µM | TGI (UO-31 renal): 23 µM
